{"source": "paper PMC12542638", "about": "“Cystathionine β-synthase TtCbs1 from Tetrahymena thermophila catalyzes the synthesis of CdS quantum dots for methyl orange decolorization” (Applied and Environmental Microbiology, 2025)", "target": "T1, His-TtCbs1 (TtCbs1, cystathionine β-synthase) (Tetrahymena thermophila, UniProt I7M350)", "T1 construct": "gene TTHERM_00558300", "T1 sequence (I7M350 1-500)": "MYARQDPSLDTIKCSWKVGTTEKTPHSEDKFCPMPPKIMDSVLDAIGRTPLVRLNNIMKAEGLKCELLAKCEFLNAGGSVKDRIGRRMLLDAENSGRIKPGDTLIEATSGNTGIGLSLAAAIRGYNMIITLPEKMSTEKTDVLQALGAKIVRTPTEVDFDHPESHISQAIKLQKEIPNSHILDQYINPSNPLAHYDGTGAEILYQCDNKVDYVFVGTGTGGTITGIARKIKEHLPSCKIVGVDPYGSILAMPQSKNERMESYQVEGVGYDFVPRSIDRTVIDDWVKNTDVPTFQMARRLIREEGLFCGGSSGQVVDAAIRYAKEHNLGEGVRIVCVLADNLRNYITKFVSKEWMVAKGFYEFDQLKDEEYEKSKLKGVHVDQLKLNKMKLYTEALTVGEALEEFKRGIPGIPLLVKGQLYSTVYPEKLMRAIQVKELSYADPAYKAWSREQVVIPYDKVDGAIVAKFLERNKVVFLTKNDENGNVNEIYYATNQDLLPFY", "assay": "CdS quantum dot formation from enzymatically released H2S, UV-Vis and fluorescence", "assay_type": "biochemical", "settings": "50 mM Tris-HCl pH 8.5, 37 °C, 0.1 mg/mL enzyme, 4 mM cysteine, 0.5 mM CdCl2; no signal without enzyme", "data": [{"smiles": "N[C@@H](CS)C(=O)O", "note": "[L-cysteine]", "values": [{"measurement": "CdS quantum dot formation from enzymatically released H2S, UV-Vis and fluorescen", "result": "Cysteine, as a thiol compound, serves as a substrate for His-TtCbs1 to produce H2S"}]}]}
